Reference: patent US6156754A, “Glycoconjugates of modified camptothecin derivatives (A-or B-ring linkage)” (Bayer Aktiengesellschaft, priority 1996, dated 2000)
In brackets after ≈: the same amount, converted by molar mass. Structures can show the parent of a compound that is named as a salt.

Experiments:
[1] = test system: HT 29; assay: Growth inhibition (MTT) test, cytotoxic action on HT 29; type: cell-based, human; conditions: HT 29 cell line, growth checked after day 3 and day 6
Experimental: (§1) 1. Growth Inhibition Test for the Determination of the Cytotoxic Properties
(§2) The human large intestine cell lines SW 480 and HT 29 (ATCC No. CCL 228 and HBT 38) and the mouse melanoma cell line B 16 F 10 were grown in Roux dishes in RPMI 1640 medium with addition of 10% FCS. They were then trypsinized and taken up in RPMI plus 10% FCS to a cell count of 50,000 cells/ml. 100 μl of cell suspension/well were added to a 96 microwell plate and incubated for 1 day at 37° C. in a CO2 incubator. A further 100 μl of RPMI Medium and 1 μl of DMSO containing the test substances were then added. The growth was checked after day 3 and day 6. To this end, 40 μl of MTT solution (3-(4,5-dimethylthiazol-2-yl)-2,5-diphenyl-tetrazolium bromide) having a starting concentration of 5 mg/ml of H2 O were added to each microwell. Incubation was carried out for 5 hours in a CO2 incubator at 37° C. The medium was then aspirated and 100 μl of i-propanol/well were added. After shaking for 30 min with 100 μl of H2 O, the extinction was measured at 540 nm using a Titertek Multiscan MCC/340 (Flow).
(§3) The cytotoxic action is indicated in Table 1 as the IC50 value (dose which inhibits the cell growth to 50% of the cell growth of the control) in each case for the SW 480 and HT 29 and B16F10 cell lines: […]

[2] = test system: SW 480; assay: Growth inhibition (MTT) test, cytotoxic action on SW 480; type: cell-based, human; conditions: SW 480 cell line, growth checked after day 3 and day 6
Experimental: as §1, §2, §3

[3] = test system: B16F10; assay: Growth inhibition (MTT) test, cytotoxic action on B16F10; type: cell-based, mouse; conditions: B16F10 cell line, growth checked after day 3 and day 6
Experimental: as §1, §2, §3

[4] = test system: Bone marrow cells; assay: Haematopoietic activity: bone marrow stem cell colony formation; type: cell-based, mice
Experimental: 2. Haematopoietic Activity of Glycoconjugates in Comparison with the Underlying Active Compound
Bone marrow cells are washed out of mice femurs. 10^5 cells are incubated at 37° C. and 7% CO2 in McCoy 5A medium (0.3% agar) together with recombinant murine GM-CSF (Genzyme; stem cell colony formation) and the substances (10^-4 to 100 μg/ml). 7 days later, the colonies ([…]) and clusters (17-50 cells) are counted.
As shown in Tab. 2 with reference to Example 2.1, the glycoconjugates investigated show, compared with the underlying active compound, an inhibition of the bone marrow stem cell proliferation which is reduced approximately by the factor 100.

[5] = In vivo inhibition of tumour growth in the nude mouse model (LXFL 529 xenograft); set-up: species or system human tumour in athymic nude mice (NMRI nu/nu); conditions: mouse, in vivo, ip; nude mice, i.p. day 1, 2, 3; read-out: maximum tolerable dose (MTD)
Experimental: (§4) 3. In Vivo Inhibition of Tumour Growth in the Nude Mouse Model
(§5) For all in vivo experiments for investigation of the inhibition of tumour growth athymic nude mice (NMRI nu/nu strain) were used. The selected large-cell lung carcinoma LXFL 529 was grown by serial passage in nude mice. The human origin of the tumour was confirmed by isoenzymatic and immunohistochemical methods.
(§6) The tumour was implanted subcutaneously into both flanks of 6 to 8 week old nu/nu nude mice. The treatment was started, depending on the doubling time, as soon as the tumours had reached a diameter of 5-7 mm. The mice were assigned to the treatment group and the control group (5 mice per group with 8-10 assessable tumours) by randomization. The individual tumours of the control group all grew progessively.
(§7) The size of the tumours was measured in two dimensions by means of a slide gauge. The tumour volume, which correlated well with the cell count, was then used for all evaluations. The volume was calculated according to the formula "length×breadth×breadth/2" ([a×b^2 ]/2, a and b represent two diameters at right angles).
(§8) The values of the relative tumour volume (RTV) were calculated for each individual tumour by dividing the tumour size on day X with the tumour size on day 0 (at the time of randomization). The mean values of the RTV were then used for the further evaluation.
(§9) The inhibition of the increase of the tumour volume (tumour volume of the test group/control group, T/C, in per cent) was the final measured value.
(§10) The administration of the compounds was carried out intraperitoneally (i.p.) on day 1, 2 and 3 after randomization.

[6] = test system: large-cell lung carcinoma LXFL 529; assay: as above; set-up: species or system human tumour in athymic nude mice (NMRI nu/nu); conditions: for Relative body weight on day 7 / Relative tumour volume on day 14 / Survival time: i.p. day 1, 2, 3; for Relative body weight on day 7: control 102; for Relative tumour volume on day 14: control 691; for Survival time: each of five mice
Experimental: as §4, §5, §6, §7, §8, §9, §10

| Structure (SMILES) | IC50 [1] [nM] | IC50 [2] [nM] | IC50 [3] [nM] | further results |
| --- | --- | --- | --- | --- |
| CCC1(O)C(=O)OCc2c1cc1n(c2=O)Cc2c-1nc1cc3c(cc1c2CN1CCN(C(=O)[C@H](C)NC(=O)[C@H](CCCCN)NC(=S)Nc2ccc(O[C@H]4O[C@@H](C)[C@@H](O)[C@@H](OCC(=O)O)[C@@H]4O)cc2)CC1)OCCO3 (mixture of isomers) [Example 3.3, 10,11-(Ethylenedioxy)-7-{1-[N^α -(O-(3-O-carboxymethyl-β-L-fucopyranosyl)-4-hydroxy-phenylaminothiocarbonyl]-L-lysyl-L-alanyl]-piperazin-4-yl-methyl}-20(R/S)-camptothecin, hydrochloride] | 0.1 | 0.25 | – | – |
| CC[C@@]1(O)C(=O)OCc2c1cc1n(c2=O)Cc2c-1nc1ccccc1c2COC(=O)[C@@H](NC(=O)[C@H](CCCCN)NC(=S)Nc1ccc(O[C@H]2O[C@@H](C)[C@@H](O)[C@@H](OC)[C@@H]2O)cc1)C(C)C [Example 1.4, 7-{N^α -[O-(3-O-Methyl-β-L-fucopyranosyl)-4-hydroxy-phenylamino-thiocarbonyl)-L-lysyl-L-valyoxymethyl}-camptothecin, Hydrochloride] | 0.04 | 0.03 | 0.2 | – |
| CC[C@@]1(O)C(=O)OCc2c1cc1n(c2=O)Cc2cc3c(N)cccc3nc2-1 [Example 2.1.a, 9-Amino-camptothecin, reference compound] | – | – | – | IC50 ([4]; Bone marrow cell, 168 h, mouse bone marrow cells with GM-CSF, 7 days, read-out: IC50 (inhibition of bone marrow stem cell proliferation)): 1.6 ng/mL (≈ 4.4 nM) |
| CC[C@@]1(O)C(=O)OCc2c1cc1n(c2=O)Cc2cc3c(NC(=O)[C@H](C)NC(=O)[C@H](CCCCNC(=S)Nc4ccc(O[C@H]5O[C@@H](C)[C@@H](O)[C@@H](OC)[C@@H]5O)cc4)NC(=S)Nc4ccc(O[C@H]5O[C@@H](C)[C@@H](O)[C@@H](OC)[C@@H]5O)cc4)cccc3nc2-1 [Example 2.1, 9-{N^α,N^ε -bis-[O-(3-O-Methyl-β-L-fucopyranosyl)-4-hydroxy-phenylamino-thiocarbonyl]-L-lysyl-L-alanyl-amino}-camptothecin] | 0.06 | 0.2 | 2 | reduction of inhibition of bone marrow stem cell proliferation compared with the underlying active compound (factor) ([4]; glycoconjugate vs underlying active compound (2.1.a)): ~100; IC50 (inhibition of bone marrow stem cell proliferation) ([4]; mouse bone marrow cells with GM-CSF, 7 days): 0.17 µg/mL |
| CC[C@@]1(O)C(=O)OCc2c1cc1n(c2=O)Cc2c-1nc1ccccc1c2COC(=O)[C@H](C)NC(=O)[C@H](CCCCNC(=S)Nc1ccc(O[C@H]2O[C@@H](C)[C@@H](O)[C@@H](OC)[C@@H]2O)cc1)NC(=S)Nc1ccc(O[C@H]2O[C@@H](C)[C@@H](O)[C@@H](OC)[C@@H]2O)cc1 [Example 1.1, 7-{N^α,N^ε -bis-[O-(3-O-Methyl-β-L-fucopyranosyl)-4-hydroxy-phenylaminothiocarbonyl]-L-lysyl-L-alanyloxymethyl}-camptothecin] | 0.025 | 0.015 | 0.18 | MTD [5]: 12.5 mg/kg/day; Relative body weight on day 7 ([6]; 3.125 mg/kg/day): 93 % of day 0; Relative tumour volume on day 14 ([6]; 3.125 mg/kg/day): 0.1 % of day 0; Survival time ([6]; 3.125 mg/kg/day): > 21 days; Relative body weight on day 7 ([6]; 6.25 mg/kg/day): 93 % of day 0; Relative tumour volume on day 14 ([6]; 6.25 mg/kg/day): 0.1 % of day 0; Survival time ([6]; 6.25 mg/kg/day): > 21 days; Relative body weight on day 7 ([6]; 12.5 mg/kg/day (MTD)): 72 % of day 0; Relative tumour volume on day 14 ([6]; 12.5 mg/kg/day (MTD)): 0.1 % of day 0; Survival time ([6]; 12.5 mg/kg/day (MTD)): > 21 days; therapeutic efficacy (remission of the tumour) ([6]; at MTD, 1/2 MTD and 1/4 MTD): complete remission of the tumour |
| CC[C@@]1(O)C(=O)OCc2c1cc1n(c2=O)Cc2c-1nc1ccccc1c2COC(=O)[C@@H](NC(=O)[C@H](CCCCN)NC(=S)Nc1ccc(O[C@H]2O[C@@H](C)[C@@H](O)[C@@H](OCC(=O)O)[C@@H]2O)cc1)C(C)C [Example 1.3, 7-{N^α -[O-(3-O-Carboxymethyl-β-L-fucopyranosyl)-4-hydroxy-phenylamino-thiocarbonyl]-L-lysyl-L-valyloxymethyl}-camptothecin, hydrochloride] | 0.03 | 0.04 | – | – |
| CCC1(O)C(=O)OCc2c1cc1n(c2=O)Cc2c-1nc1cc3c(cc1c2CN1CCN(C(=O)[C@H](C)NC(=O)[C@H](CCCCNC(=S)Nc2ccc(O[C@H]4O[C@@H](C)[C@@H](O)[C@@H](OC)[C@@H]4O)cc2)NC(=S)Nc2ccc(O[C@H]4O[C@@H](C)[C@@H](O)[C@@H](OC)[C@@H]4O)cc2)CC1)OCCO3 (mixture of isomers) [Example 3.1] | 0.06 | 0.08 | 0.5 | – |
